According to patent US20050063969A1, “Assay” (priority 2001, published 2005):

Columns and labels:
Assay type in all cases: cell-based
K562-αvβ6 cells = assay: Adhesion of K562-αvβ6 cells to wells coated with GST-LAPβ3 (amino acids 259-269); settings: wells coated with 0.5 μg GST-LAPβ3; 2 mM MgCl2; antibodies 1 μg/well; FIG. 3
Experimental: K562-αvβ6 cells were allowed to attach to wells coated with 0.5 μg of GST-LAPβ3 (amino-acids 259-269) in the presence of 2 mM MgCl2. Specific blocking antibodies (1 μg/well) and compounds were added as indicated. Each data point represents the mean±SD of duplicate points, and is representative of at least three identical experiments.
(§1) K562-WT (wild-type), K562-αvβ6, K562-αvβ5 and K562-αvβ3 cells were maintained in 1:1 RPMI 1640, Hepes modification (Gibco): Dulbecco's […] (DMEM), Hepes modification (Sigma) supplemented with L-glutamine (Gibco) and 10% fetal calf serum (FCS). In addition K562-αvβ3, K562-αvβ5, and K562-αvβ6 cells were supplemented with geneticin (G418, Gibco) at 1 mg/ml. All transfected cells were generated by transfecting K562 cells with pCDNA-3 constructs containing individual integrin cDNAs, using lipofectamine plus (Gibco BRL).
(§2) All proteins were coated onto Maxisorp 96-well plates (Nunclon) overnight at 4° C. […] For quantitation cells were visualised by staining with 0.1% crystal violet (Sigma) for 10 minutes then lysed in 0.5% Triton X-100 (Sigma) and read optically at 570 nm in a Wallac Victor plate reader.
(§3) The region of LAPβ3 corresponding to amino acids 259 to 269 (^259HGRGDLGRLKK^269) was expressed as a GST fusion protein and tested for the ability to support adhesion of K562-αvβ3, K562-αvβ5, and K562-αvβ6 cells. […]

K562-αvβ5 cells = assay: Adhesion of K562-αvβ5 cells to wells coated with GST-LAPβ3 (amino acids 259-269); settings: wells coated with 0.5 μg GST-LAPβ3; 0.5 mM MnCl2; antibodies 1 μg/well; FIG. 4
Experimental: K562-αvβ5 cells were allowed to attach to wells coated with 0.5 μg of […] (amino acids 259-269) in the presence of 0.5 mM MnCl2. Specific blocking antibodies (1 μg/well) and compounds were added as indicated. Each data point represents the mean±SD of duplicate points, and is representative of at least three identical experiments.
as §1, §2, §3

K562-αvβ3 cells = assay: Adhesion of K562-αvβ3 cells to wells coated with GST-LAPβ3 (amino acids 259-269); settings: wells coated with 0.5 μg GST-LAPβ3; 2 mM MgCl2; antibodies 1 μg/well; FIG. 2
Experimental: K562-αvβ3 cells were allowed to attach to wells coated with 0.5 μg of GST-LAPβ3 (amino acids 259-269) in the presence of 2 mM MgCl2. Specific blocking antibodies (1 μg/well) and compounds were added as indicated. Each data point represents the mean±SD of duplicate points, and is representative of at least three identical experiments.
as §1, §2, §3

Compound	Blocking of K562-αvβ6 cell adhesion to GST-LAPβ3 (amino acids 259-269) (K562-αvβ6 cells)	Inhibition of K562-αvβ5 cell adhesion to GST-LAPβ3 (amino acids 259-269) (K562-αvβ5 cells)	Blocking of K562-αvβ3 cell adhesion to GST-LAPβ3 (amino acids 259-269) (K562-αvβ3 cells)
Ac—RTDLDSLRT-NH2 (Ac-RTDLDSLRT-NH2) [GW603365A, described in WO 0037487]	blocked		
CN(Cc1nc2ccccc2[nH]1)C(=O)c1ccc2c(c1)CN(C)C(=O)[C@H](CC(=O)O)N2 [SB223245]		total blockade	blocked
